Key:
[1] = tested on: IL-4 stimulated expression of CD23 in human Ramos B cells (JAK-1 and JAK-3); assay: Assay for Ramos B-Cell Line Stimulated with IL-4 (CD23 upregulation, FACS); type: cell-based; conditions: Homo sapiens, Ramos, Ramos B cells stimulated with IL-4, CD23 expression by FACS; read-out: IC50, Example 41
How it was run: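 Compound effect on IL-4-driven JAK1/JAK3 signalling is gauged as CD23 surface expression, measured by FACS after 20-24 h of stimulation with IL-4 at 50 units/mL final. A 1 h compound pre-treatment at 37 °C precedes stimulation, and IC50 is derived from the results.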

[2] = tested on: up-regulation of ICAM-1 (CD54) by IFNγ in U937 human monocytic cells; assay: U937 IFNγ ICAM1 FACS Assay; type: cell-based; conditions: Homo sapiens, U-937, U937 cells stimulated with IFNγ, ICAM-1 expression by FACS; read-out: IC50, Example 44
How it was run: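 U937 cells in 10% FCS RPMI were preincubated 30 min at 37 °C with an 8-point, 3-fold compound dilution series in duplicate, then stimulated with IFNγ for 18–24 h. Surface ICAM-1 was stained with APC anti-ICAM-1 and read by flow cytometry as geometric mean on live-gated cells. EC50 was derived.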

Row | SMILES | IC50 [1] [µM] | IC50 [2] [µM]
1 | Cc1cc(Nc2ncc(F)c(Nc3ccc(OC(F)(F)F)c(Cl)c3)n2)cc(S(N)(=O)=O)c1Cl [VI-18, N2-(3-Aminosulfonyl-4-chloro-5-methylphenyl)-N4-(3-chloro-4-trifluoromethoxyphenyl)-5-fluoro-2,4-pyrimidinediamine] | 0.257 | 6.06
2 | NS(=O)(=O)c1cccc(Nc2ncc(F)c(Nc3ccc(C(=O)N4CCSCC4)cc3)n2)c1 [IX-34, N2-(3-Aminosulfonylphenyl)-5-fluoro-N4-[4-(4-thiomorpholinyl)carbonylphenyl]-2,4-pyrimidinediamine] | 0.582 | 3.95
3 | Cc1ccc(Nc2ncc(F)c(Nc3ccc(-c4cnco4)cc3)n2)cc1S(N)(=O)=O [IV-6, N2-(3-Aminosulfonyl-4-methylphenyl)-5-fluoro-N4-[4-(1,3-oxazol-5-yl)phenyl]-2,4-pyrimidinediamine] | 0.103 | 0.88
4 | COc1ccc(CN2C(=O)C(C)Sc3ccc(Nc4nc(Nc5ccc(S(N)(=O)=O)cc5)ncc4F)cc32)cc1 (racemic) [Compound V-10, (R/S)-N2-(4-Aminosulphonylphenyl)-5-fluoro-N4-[2-methyl-3-oxo-4-(4-methoxybenzyl)-benzo[1,4]thiazin-6-yl]-2,4-pyrimidinediamine] | 0.261 | 2.7
5 | NS(=O)(=O)c1ccc(Nc2ncc(F)c(NCCc3ccc(-n4ccnc4)cc3)n2)cc1 [III-90, N2-(4-Aminosulfonylphenyl)-5-fluoro-N4-[4-(1-imidazolyl)phenethyl]-2,4-pyrimidinediamine] | 0.358 | 2.63
6 | CNC(=O)OCc1cccc(Nc2nc(Nc3ccc(C)c(S(N)(=O)=O)c3)ncc2F)c1 [VI-49, N2-(3-Aminosulfonyl-4-methylphenyl)-5-fluoro-N4-[3-(methylaminocarbonyloxymethyl)phenyl]-2,4-pyrimidinediamine] | 0.268 | 2.1
7 | NS(=O)(=O)c1cccc(Nc2ncc(F)c(Nc3ccc(CCCCO)cc3)n2)c1 [VI-89, N2-(3-Aminosulfonylphenyl)-5-fluoro-N4-[4-(4-hydroxybutyl)phenyl]-2,4-pyrimidinediamine] | 0.132 | 2.04
8 | N#CCc1c[nH]c2c(Nc3nc(Nc4cccc(S(N)(=O)=O)c4)ncc3F)cccc12 [IX-15, N2-(3-Aminosulfonylphenyl)-N4-(3-cyanomethyl-1H-indol-7-yl)-5-fluoro-2,4-pyrimidinediamine] | 0.217 | 5.36
9 | Cc1ccc(Nc2ncc(F)c(Nc3ccc(O)cc3)n2)cc1S(N)(=O)=O [VI-102, N2-(3-Aminosulfonyl-4-methylphenyl)-5-fluoro-N4-[4-hydroxyphenyl]-2,4-pyrimidinediamine] | 0.183 | 2.8
10 | COc1ccc(Nc2nc(Nc3cc(Cl)c(C)c(S(N)(=O)=O)c3)ncc2F)cc1Cl [VI-13, N2-(3-Aminosulfonyl-5-chloro-4-methylphenyl)-N4-(3-chloro-4-methoxyphenyl)-5-fluoro-2,4-pyrimidinediamine] | 0.0965 | 1.39
11 | CN1C(=O)C(C)(C)S(=O)(=O)c2ccc(Nc3nc(Nc4ccc(S(N)(=O)=O)cc4)ncc3F)cc21 [VII-12, N2-(4-Aminosulphonylphenyl)-5-fluoro-N4-(2,2,4-trimethyl-1,1,3-trioxo-benzo[1,4]thiazin-6-yl)-2,4-pyrimidinediamine] | 0.602 | 31.8
12 | Cc1ccc(Nc2ncc(F)c(Nc3ccc4sccc4c3)n2)cc1S(N)(=O)=O [VII-57, N2-(3-Aminosulfonyl-4-methylphenyl)-N4-(benzothiophen-5-yl)-5-fluoro-2,4-pyrimidinediamine] | 0.107 | 0.735
13 | N#CCN1C(=O)CSc2ccc(Nc3nc(Nc4cccc(S(N)(=O)=O)c4)ncc3F)cc21 [Compound V-12, N2-(3-Aminosulphonylphenyl)-5-fluoro-N4-(3-oxo-4-cyanomethyl-benzo[1,4]thiazin-6-yl)-2,4-pyrimidinediamine] | 0.188 | 3.04

Second part, the molecule after the results:

Row | IC50 [1] [µM] | IC50 [2] [µM] | SMILES
14 | 0.045 | 0.767 | COc1ccc(Nc2nc(Nc3cc(C)c(F)c(S(N)(=O)=O)c3)ncc2F)cc1Cl [VI-15, N2-(3-Aminosulfonyl-4-fluoro-5-methylphenyl)-N4-(3-chloro-4-methoxyphenyl)-5-fluoro-2,4-pyrimidinediamine]
15 | 0.0836 | 5.46 | NS(=O)(=O)c1cccc(Nc2ncc(F)c(Nc3ccc(Cl)c(Cl)c3)n2)c1 [VI-110, N2-(3-Aminosulfonylphenyl)-N4-(3,4-dichlorophenyl)-5-fluoro-2,4-pyrimidinediamine]
16 | 0.0893 | 1.13 | C#CCn1ccc2cc(Nc3nc(Nc4ccc(C)c(S(N)(=O)=O)c4)ncc3F)ccc21 [IX-1, N2-(3-Aminosulfonyl-4-methylphenyl)-5-fluoro-N4-[1-(propyn-3-yl)indol-5-yl]-2,4-pyrimidinediamine]
17 | 0.0444 | 0.257 | COc1ccc(Nc2nc(Nc3cccc(S(N)(=O)=O)c3)ncc2Br)cc1Cl [VI-26, N2-(3-aminosulfonylphenyl)-5-bromo-N4-(3-chloro-4-methoxyphenyl)-2,4-pyrimidinediamine]
18 | 0.0654 | 2.76 | NS(=O)(=O)c1cccc(Nc2ncc(F)c(Nc3ccc4ncccc4c3)n2)c1 [VII-70, N2-(3-Aminosulfonylphenyl)-5-fluoro-N4-(quinolin-6-yl)-2,4-pyrimidinediamine]
19 | 0.0848 | 1.18 | Cc1ccc2cc(Nc3nc(Nc4cccc(S(N)(=O)=O)c4)ncc3F)ccc2n1 [VII-72, N2-(3-Aminosulfonylphenyl)-5-fluoro-N4-(2-methylquinolin-6-yl)-2,4-pyrimidinediamine]
20 | 0.0311 | 0.673 | COc1ccc(Nc2nc(Nc3ccc(N4CCN(C)CC4)c(S(N)(=O)=O)c3)ncc2F)cc1Cl [VI-116, N2-[3-Aminosulfonyl-4-(4-methylpiperazine-1-yl)phenyl]-N4-(3-chloro-4-methoxyphenyl)-5-fluoro-2,4-pyrimidinediamine]
21 | 0.0448 | 0.245 | Cc1cnc(Nc2cccc(S(N)(=O)=O)c2)nc1Nc1ccc2c(c1)N(C)C(=O)CS2 [VII-35, N2-(3-Aminosulphonylphenyl)-5-methyl-N4-(4-methyl-3-oxo-benzo[1,4]thiazin-6-yl)-2,4-pyrimidinediamine]
22 | 0.0795 | 1.77 | C#CCn1ccc2cc(Nc3nc(Nc4cccc(S(N)(=O)=O)c4)ncc3F)ccc21 [IX-2, N2-(3-Aminosulfonylphenyl)-5-fluoro-N4-[1-(propyn-3-yl)indol-5-yl]-2,4-pyrimidinediamine]
23 | 0.0946 | 3.85 | C#CCOC(=O)NCc1ccc(Nc2nc(Nc3cccc(S(N)(=O)=O)c3)ncc2F)cc1 [VI-74, N2-(3-Aminosulfonylphenyl)-5-fluoro-N4-{4-[(prop-2-ynyloxy)carbonylaminomethyl]phenyl}-2,4-pyrimidinediamine]

Reference: patent US11827628B2, “Compositions and methods for inhibition of the JAK pathway” (Rigel Pharmaceuticals, Inc., priority 2005, dated 2023)
